Measurements taken from patent US12215106B2, “Pharmaceutical compounds and therapeutic methods” (RUTGERS, THE STATE UNIVERSITY OF NEW JERSEY, priority 2018, dated 2025).
Structures can show the parent of a compound that is named as a salt.

Key:
phospho-RB = assay: Western blotting of phospho-RB levels in GBM spheres; format: cell-based, human; conditions: for phospho-RB (pRB) levels: GBM spheres, 72 hours, Western blotting
Procedure: Cells were lysed in Cell Lysis Buffer (Cell Signaling, #9803) supplemented with Protease Inhibitor Cocktail (Sigma, #P8340), sonicated briefly while on ice and spun down for 30 minutes at 4° C., after which the supernatant was collected. For each sample, 2 uL of lysate was mixed well into 198 uL de-ionized water. Next, 10 uL of this diluted sample was added to a well in a 96 well plate in quadruplets and mixed with Protein Assay Dye Reagent Concentrate (Bio-Rad, #500-0006) (which was diluted 1:5 with water). BSA standards of 25 ng, 50 ng, 100 ng, 200 ng and 250 ng were also used to the plate and mixed with the reagent. The plate was read in a plate reader at 600 nm and samples were calibrated to the standards to determine the concentration of protein. Using the NuPAGE system (Invitrogen), 25 ug of protein was mixed with NuPAGE LDS 4× Sample Buffer (#NP0007), NuPAGE 10× Reducing Agent (#NP0004) and water, mixed well and heated at 96° C. for 15 minutes to denature the protein. The samples were then loaded into 4-12% Bis-Tris gels (Novex (Invitrogen), #0323) with a protein ladder (Novex (Invitrogen) Sharp Pre-stained protein ladder, #57318) and run at 100-120V for about 2 hours with NuPAGE 20×SDS MES Running Buffer (#NP0002) diluted with water. Next, the gel was taken out and loaded into a NuPAGE transfer cassette with a polyvinylidene membrane with NuPAGE 20× Transfer Buffer (#NP0006-1) diluted with water and methanol. Proteins were transferred for 1 hour at 30V at room temperature. Blocking was performed using the Millipore SNAP i.d. Protein Detection system in 0.25% non-fat dry milk in 0.1% Tween in PBS (PBST). Primary antibodies against BMI1 (Cell Signaling, #6964), mouse monoclonal antiphospho-RB, anti-CDK4, anti-STAT1, anti-PD-L1 (1:1,000) (Millipore), and housekeeping control rabbit polyclonal anti-vinculin (1:1000) (Cell Signaling) were incubated overnight with gentle rocking at 4° C. in the blocking solution. The following day, membranes were washed 3 times with PBST in the SNAP i.d. system before being incubated with secondary antibody in blocking buffer for 1 hour at room temperature. Three washes were then performed in the SNAP i.d. system. Protein signals were detected using ECL Western Blotting Substrate (Pierce, #32106) and filmed.
GBM CSCs are known to be quiescent and therefore resistant to standard chemo/radiotherapy. The retinoblastoma (Rb) tumor suppressor protein regulates cell proliferation by controlling progression through the restriction point within the G1-phase of the cell cycle. Cell cycle-dependent phosphorylation for Ser780 by cyclin D1-CDK4/6 inhibits Rb target binding and allows cell cycle progression.

in vitro = in vitro ADME, mice; conditions: mouse; for recovery at 4 h, 5 µM: pH 7.4; for fraction unbound at 4 h, 5 μM: plasma
Procedure: (§1) The objective of this study was to evaluate protein binding test compounds in mice plasma. This was accomplished by spiking the test compounds at a concentration of 5 μM into mice plasma and dialyzing against buffer until equilibrium is achieved (4 hours). Analyte area ratios of the test compounds in plasma and buffer were determined to calculate unbound and bound percentages of compound to the plasma proteins.
(§2) Phosphate buffered saline pack (0.1 M sodium phosphate and 0.15 M sodium chloride, pH 7.2) was dissolved in 500 mL of deionized water and pH was adjusted to 7.4 with 0.5 N NaOH.
(§3) 1 mM stock solutions were prepared in DMSO and diluted 200-folds in mice plasma to prepare a concentration of 5 μM. The final DMSO concentration in plasma was 0.5%.
(§4) Rapid equilibrium dialysis was performed with a rapid equilibrium dialysis (RED) device containing dialysis membrane with a molecular weight cut-off of 8,000 Daltons. Each dialysis insert contains two chambers. The red chamber is for plasma while the white chamber is for buffer.
(§5) A 200 μL aliquot of warfarin and test compound at 5 (triplicates) were separately added to the plasma chamber and 350 μL of phosphate buffer saline (pH 7.4) was added to the buffer chamber of the inserts. After sealing the RED device with an adhesive film, dialysis was performed in incubator at 37° C. with shaking at 100 RPM for 4 hours.
(§6) A 50 μL aliquot of warfarin and test compounds were added to four 0.5 mL microfuse tubes. Two aliquots were frozen immediately (0 minute sample). The other two aliquots were incubated at 37° C. for 4 hours along with the RED device.
(§7) Following dialysis, an aliquot of 50 μL was removed from each well (both plasma and buffer side) and diluted with equal volume of opposite matrix (dialyzed with the other matrix) to nullify the matrix effect. Similarly, 50 μL of buffer was added to recovery and stability samples. An aliquot of 100 μL was submitted for LCMS/MS analysis.
(§8) A 25 μL aliquot of warfarin and test compounds were crashed with 100 μL of acetonitrile containing internal standard (glipizide) and vortexed for 5 minutes. The samples were centrifuged at 4000 RPM at 4° C. for 10 min and 100 μL of supernatant was submitted for LC-MS/MS analysis. Samples were monitored for parent compound in MRM mode using LC-MS/MS.
(§9) The peak area ratios (analyte versus internal standard) obtained were used to determine the fraction of compound bound to plasma proteins.

mice plasma = assay: in vitro; format: in vitro ADME; conditions: mouse, plasma, 4 h, 5 μM
Procedure: as §1, §2, §3, §4, §5, §6, §7, §8, §9

Compound	phospho-RB (pRB) levels (phospho-RB)	recovery at 4 h, 5 µM (in vitro) [%]	fraction unbound at 4 h, 5 μM (in vitro; pH 7.4, % Bound Mean ± SD)	fraction unbound at 4 h, 5 μM (in vitro; pH 7.4, % Bound R1)	fraction unbound at 4 h, 5 μM (in vitro; pH 7.4, % Bound R2)	fraction unbound at 4 h, 5 μM (in vitro; pH 7.4, % Bound R3)	fraction unbound at 4 h, 5 μM (in vitro; pH 7.4, PPB at 4 h)	% compound remaining at 4 hrs (mice plasma) [%]	recovery at 4 h, 5 µM (in vitro; Plasma) [%]	phospho-RB levels, time-course (phospho-RB; 7-10 nM, time-course of 120 hours)
[2H]C1([2H])Oc2ccc(Nc3nc(-c4c(C)nc5ccccn45)cs3)cc2O1 [Compound 17, N-(benzo[d][1,3]dioxol-5-yl-2,2-d2)-4-(2-methylimidazo[1,2-c]pyridin-3-yl)thiazol-2-amine hydrochloride]	lowered pRB	124	0.006	0.008	0.004	0.005	0.25	75	–	–
[2H]C([2H])([2H])Oc1ccc(Nc2nc(-c3c(C)nc4ccccn34)cs2)cc1 [Compound 15, N-(4-(methoxy-d3)phenyl)-4-(2-methylimidazo[1,2-c]pyridin-3-yl)thiazol-2-amine hydrochloride]	lowered pRB	–	0.001	0.001	0.001	0.001	0.1	90	114	–
COc1c(F)cc(Nc2nc(-c3c(C)nc4ccccn34)cs2)cc1F [Compound 14, hydrochloride]	lowered pRB	124	0.003	0.002	0.003	0.002	0.24	76	–	downregulation of phospho-RB levels
Cc1nc2ccccn2c1-c1csc(Nc2ccc3c(c2)OC(F)(F)O3)n1 [Compound 16, N-(2,2-difluorobenzo[d][1,3]dioxol-5-yl)-4-(2-methylimidazo[1,2-a]pyridin-3-yl)thiazol-2-amine hydrochloride]	–	–	0.01	0.01	0.01	0.011	0.24	76	117	–
